The test system of one data set is human erythrocytes. The experiment in a line: In-vitro toxicity (hemolysis) study. The format is cell-based. Conditions: 6 μg/ml; for toxicity to erythrocytes: assay conditions of FIG. 4B. As to the method: Reference is made to FIG. 4B. Fresh human erythrocytes were diluted 1:100 in PBS, and incubated in an Eppendorf tube while rotating slowly in the presence of 6 μg/ml of each of compound 4 and compound 6. Amphotericin B was used as positive control. Sterile double distilled water served as a control for 100% hemolysis. After 1, 3, 5 and 21 h, 20 μl of each test tube were removed and diluted in 180 μl PBS. Samples were centrifuged for 10 minutes at 1200 RPM and the optical density of the supernatant was measured at 425 nm.

A further data set concerns Candida krusei. The experiment in a line: MIC/MFC broth dilution (CLSI), clinical isolates. It is filed as cell-based. Conditions: C. krusei, 3 isolates, 48 h at 37° C. As to the method:
(§1) Isolates of Aspergillus fumigatus, Aspergillus flavus, Aspergillus terreus Aspergillus niger, Rhizopus oryzae, Candida albicans and Candida krusei were isolated from patients in Israeli hospitals and used for in vitro efficacy studies.
(§2) Efficacy was evaluated by measuring minimum inhibitory concentration (MIC) and minimum fungicidal concentration (MFC) values for fungal isolates. Testing of isolates was performed according to the Clinical & Laboratory Standards Institute (CLSI) method. (CLSI. 2008. M27-A3 Reference method for broth dilution antifungal susceptibility testing of yeasts; Approved Standard—3rd edition. Clinical and Laboratory Standards Institute, Wayne). RPMI MOPS media was used throughout the experiment as growth and dilution media. Spores and yeast cells were harvested in 0.05% Tween from 24-48 h and cultures were grown in rich yeast extract-agar-glucose (YAG) medium (composed of: 0.5% w/v yeast extract, 1% w/v glucose, 10 millimolar (mM) MgCl2, supplemented with 0.1% v/v trace elements solution, and 0.2% v/v vitamin mix). The spores and the yeast cells were counted and diluted to a final concentration of 2.5×10^4 per ml. A stock solution of 5 mg/ml was prepared in dimethylsulfoxide for free AMB. Compounds 4 and 6 were prepared in sterile saline. Double dilutions of each drug were performed in 100 μL volume of RPMI-MOPS in 96 well plates beginning with a final concentration of 32 micrograms (μg)/well of each drug to 0.06 μg/well. 2500 spores or yeast cells were added to each well. Results were recorded 48 h post incubation at 37° C. […] The MFC was defined as the lowest drug concentration that yielded three or fewer colonies (i.e. 99% of the inoculum was killed).

A further data set deals with Aspergillus terreus. The data set is described as follows: MIC/MFC broth dilution (CLSI), clinical isolates. The format is cell-based. Conditions: listed as printed C. terreus, 1 isolate, 48 h at 37° C. On the procedure: as §1, §2
A further data set relates to Aspergillus flavus. The experiment in a line: MIC/MFC broth dilution (CLSI), clinical isolates. It is filed as cell-based. Conditions: A. Flavus, 3 isolates, 48 h at 37° C. As to the method:
as §1, §2

For the next data set, the system named is Aspergillus fumigatus. The data set is described as follows: MIC/MFC broth dilution (CLSI), clinical isolates. The format is cell-based. The settings on record: A. fumigatus, 4 isolates, 48 h at 37° C. As to the method: as §1, §2
For the next data set, the system named is Aspergillus niger. The data set is described as follows: MIC/MFC broth dilution (CLSI), clinical isolates. The format is cell-based. Conditions: A. niger, 3 isolates, 48 h at 37° C. As to the method: as §1, §2
The subject of another data set is Candida albicans. The data set is described as follows: MIC/MFC broth dilution (CLSI), clinical isolates. The format is cell-based. Conditions: C. albicans, 2 isolates, 48 h at 37° C. On the procedure:
as §1, §2

Another data set relates to Rhizopus oryzae. The data set is described as follows: MIC/MFC broth dilution (CLSI), clinical isolates. It is filed as cell-based. Conditions: 1 isolate, 48 h at 37° C. As to the method: as §1, §2
The nature of data set [1]: Pharmacokinetics upon single intravenous administration. The format is in vivo, mice. Set-up: ke: unit not given here. The settings on record: mouse serum, IV bolus; AMB 1 mg/kg, Compound 6 5 mg/kg. On the procedure: AMB and Compound 6 solution in saline were administrated intravenously (IV) to groups of mice at a dose of 1 and 5 mg/kg body weight, respectively. The mice received an IV bolus via the tail vein. Mice were bled over a 48 h period at the following time points: 0, 5, 15 and 30 minutes and 1, 2, 6, 12, 24 and 48 h post-dosing (3 mice per time point). Bleeding was conducted using a facial vein technique into sterile Eppendorf tubes. Whole blood samples of 150 μl were collected at each time point, stored for 30 min at room temperature for clotting and centrifuged at 10,000 RPM for 10 minutes until serum separated. The serum samples were stored at −20° C.
The concentration of Compound 6 in the serum was measured by HPLC as follows: UltiMate® 3000 system (Dionex) was used equipped with 3000 pump, VWD-3000 UV-Vis detector and Chromeleon® 6.80 software. The column used was LiChroCART® 250×4.6 mm Purospher® STAR (5 μm) C-18 RP (reverse phase). Chromatographic conditions: flow: 1.0 ml/min, linear water (buffer A)/acetonitrile (ACN) (buffer B) gradient (buffer A—100% water, 0.1% TFA; buffer B—100% ACN, 0.1% TFA).
200 μl of methanol was added to 100 μl of serum sample and vortexed for 20 seconds, stored for 30 min at room temperature (22° C.), then centrifuged at 14,000 RPM for 10 minutes. The supernatant was filtered through a 0.22 μm filter and aliquots of 100 μl were analyzed by HPLC. AMB and Compound 6 were detected at a wavelength of 407 nm.
The pharmacokinetic graphs depicting drug concentration over time are shown in FIGS. 8A-8B (over 24 hours and 120 minutes respectively) and the calculated PK values are shown in Table 6 below.

The nature of data set [2]: Stability (hydrolysis) in phosphate buffered saline. The format is physicochemical.
Data set [3] is described as follows: Solubility in 0.9% saline after vortex, sonication and centrifuge. The format is physicochemical.

Converted amounts (≈) assume the structure as drawn. “And” between values parts separate entries of the source, which are not always exact repeats. Identical values can stand only once.

As to `C[C@@H]1[C@H](O)[C@@H](C)/C=C/C=C/C=C/C=C/C=C/C=C/C=C/[C@H](O[C@@H]2O[C@H](C)[C@@H](O)[C@H](N)[C@@H]2O)C[C@@H]2O[C@](O)(C[C@@H](O)C[C@@H](O)[C@H](O)CC[C@@H](O)C[C@@H](O)CC(=O)O[C@H]1C)C[C@H](O)[C@H]2C(=O)O` [AMB, Amphotericin B], the hemolysis in the data set with human erythrocytes (after 3 h of agitation) is listed as 76%. Besides, the “toxicity to erythrocytes” value with human erythrocytes was “very toxic”. The MFC is 1 to 2 µg/mL with Candida krusei; 4 µg/mL (≈ 4.33 µM) against Aspergillus terreus; 0.5 to 1 µg/mL against Aspergillus flavus; 0.5 to 4 µg/mL with Aspergillus fumigatus; 0.5 to 1 µg/mL in the data set on Aspergillus niger; 0.5 µg/mL (≈ 0.541 µM) against Candida albicans. This compound came in with an MFC with Rhizopus oryzae of 0.25 µg/mL (≈ 0.271 µM). Also, the MIC against Candida krusei was 0.5 µg/mL (≈ 0.541 µM); against Aspergillus terreus it was 2 µg/mL (≈ 2.16 µM); with Aspergillus flavus, 0.5 to 1 µg/mL; against Aspergillus fumigatus it was 0.25 to 1 µg/mL; against Aspergillus niger it was 0.5 to 1 µg/mL; with Candida albicans, 0.25 µg/mL (≈ 0.271 µM). In the data set with Rhizopus oryzae, this compound registered a minimum inhibitory concentration (MIC) of 0.25 µg/mL (≈ 0.271 µM). Further, the AUC0-24 in data set [1] was found to be 63.983 µg·h/mL. The CL in [1] was found to be 0.250 mL/h. The compound further showed an MRT0-24 in data set [1] of 9.664 h. This compound had a Vd in data set [1] of 0.006 L. In addition, in data set [1], the t1/2 is 15.96 h and 15.964 h.

For `COC(=O)C1C(O)CC2(O)CC(O)CC(O)C(O)CCC(O)CC(O)CC(=O)OC(C)C(C)C(O)C(C)C=CC=CC=CC=CC=CC=CC=CC(OC3OC(C)C(O)C(NC(=O)CCOCCOCCOCCOCCOCCOCCOCCOCCN)C3O)CC1O2` (stereo not shown) [Compound 6, amphotericin B amide, methyl ester-PEG(8)-amine], in the data set on human erythrocytes (after 3 h of agitation), the “hemolytic activity” value is listed as “only slightly hemolytic”. Moreover, in the data set on human erythrocytes, the “toxicity to erythrocytes” value was “negligible toxicity”. In [2] (4 hours), the “hydrolysis after 4 hours” value is “no hydrolysis could be observed”. Besides, in data set [2] (24 hours), the “level of hydrolysis after 24 hours” value was determined as 0.8%. Further, the “increased solubility relative to corresponding non-PEG-conjugated AMB compounds” value in data set [3] is “greater than 700 fold”. Besides, the MFC in the data set on Candida krusei is 4 µg/mL (≈ 2.94 µM); with Aspergillus terreus, 16 µg/mL (≈ 11.8 µM); against Aspergillus flavus, 2 to 4 µg/mL; against Aspergillus fumigatus, 2 to 8 µg/mL; in the data set with Aspergillus niger it was 2 µg/mL (≈ 1.47 µM); in the data set on Candida albicans it was 2 µg/mL (≈ 1.47 µM). In the data set with Rhizopus oryzae, this compound registered an MFC of 4 µg/mL (≈ 2.94 µM). In addition, the MIC in the data set on Candida krusei is 2 µg/mL (≈ 1.47 µM); against Aspergillus terreus, 16 µg/mL (≈ 11.8 µM); in the data set on Aspergillus flavus it was 2 to 4 µg/mL; in the data set with Aspergillus fumigatus, 1 to 8 µg/mL; against Aspergillus niger, 2 µg/mL (≈ 1.47 µM); in the data set on Candida albicans it was 1 µg/mL (≈ 0.734 µM). In addition, the MIC in the data set with Rhizopus oryzae stood at 4 µg/mL (≈ 2.94 µM). Further, the AUC0-24 in [1] worked out at 421.234 µg·h/mL. Moreover, the CL in data set [1] amounted to 0.508 mL/h. In [1], this compound displayed an MRT0-24 of 5.431 h. The compound also registered a Vd in data set [1] of 0.002 L. The ke in data set [1] is listed as 0.220. The same compound yielded a t1/2 in data set [1] of 3.153 h.
